{"source": "patent US11168052B2", "about": "“Carbamate derivative compounds, processes for preparing them and their uses” (BIO-PHARM SOLUTIONS CO., LTD., priority 2016, dated 2021)", "key": {"[1]": {"tested_on": "PTZ (Pentylenetetrazol)-induced clonic seizure in rats", "experiment": "Anti-epilepsy activity, scPTZ test in rats", "format": "in vivo, SD rats", "conditions": "Rattus norvegicus, ip", "description": "In this experiment, each test compound sample was formulated as described in Biological Experimental Example 1, and administered intraperitoneally to the test animals (mice; ICR or Rat; SD); Experimental animals, male ICR mice and male SD rats, were purchased from OrientBio or Nara biotech, Korea, and housed 4-5 mice per a cage for 4-5 days. The range of mice body weight was used between 19 and 26 grams and range of rats body weight was used between 100 and 130 grams. After Peak time (0.5, 1, 2 and 4 hr) from the administration, PTZ (Pentylenetetrazol) was administered subcutaneously in the concentration capable of inducing 97% intermittent convulsions (mice: 100-110 mg/kg?bw, 10 μl/g, or rats: 90-110 mg/kg?bw, 2 μl/g). If clonic seizure was not observed for at least 30 minutes in the PTZ administered animal, it can be considered that the test compound has anti-epilepsy activity. The median effective dose (ED50) is determined using 6 animals per a concentration (total three different concentrations), and calculated by Litchfield and Wicoxon log-probit method which is a dose-response relationship."}, "[2]": {"tested_on": "ICR mice, tail-flick analgesia meter", "experiment": "Tail-flick test", "format": "in vivo", "conditions": "orally, withdrawal latency", "procedure": "To examine the pain relief effect of the carbamate compounds, a tail-flick test was conducted, referring to Current Protocols in Neuroscience; Behavioral Neuroscience Unit 8.9.\nICR mice (male, 25-30g; Orient Bio, Korea) were habituated before test (in test room) for 1 hour. Animals were fasted 2 hr before administration of compounds. Each of Compound was orally administered at the 1-3 dose, 10 ul/g, by bodyweight (n=4-6/group). All compounds were dissolved in a vehicle of 30% (v/v) PEG 400 or 20% (v/v) Tween 80. The control group was treated the vehicle without compounds.\nAfter the administration of compounds, the mice tail were put on a tail-flick analgesia meter. To avoid tissue damage, maximal exposure time to pain stimuli was restricted to 15 s. The withdrawal latency was measured to the time to the point when each mouse responded. The relative values compared to the control (% control) were calculated.\nThe relative values compared to the sham were calculated and shown in Table 7, which show effect of the compound of examples on tail-flick test in Mice."}, "[3]": {"tested_on": "corneally kindled rats", "experiment": "Corneal kindling (CK) rat model", "format": "in vivo, Sprague-Dawley rats", "conditions": "po", "description": "Male Sprague-Dawley rats (purchased from Orient Bio Inc. Korea) of body weight 85-100 g were used for these studies. The MES test using the electroshock seizure apparatus designed by Rodent Shocker Type221 (Hugo Sachs Elektronik, Germany). The kindled rat models were electrically stimulated (8 mA, 60 Hz, 2 s, corneal electrodes) twice daily for 21 days until stage 5 seizure scored by Racine's scale (Racine, 1972) were evoked. The kindled rats were fasted and adapted to test condition, for at least 1 hour before the administration of test material. The drugs were administered orally (p.o.) in a volume of 4 μl/g body weight. The corneally kindled rat model test is a model for generalized […] seizures or bipolar disorder and identifies the compound which prevents seizure or bipolar disorder spread. The shock level was set at 8 mA, 60 Hz and the duration was set at 2 s. A drop of 0.9% saline was placed in each eye, the electrodes were placed over the eyes, and the shock was administered immediately. Pharmacological effects of the test materials were evaluated to compare the test groups (n=6) with a control group (n=6). Control group was administrated vehicle, only. The peak time was determined by administration test material's random dose for 0.5, 1, 2, 4 hour. The time that the most protect was defined peak time and ED50 was determined by other dose administration at peak time. […]"}, "[4]": {"tested_on": "BIC-induced clonic seizure in mice", "experiment": "Chemical induced seizure model (BIC)", "format": "in vivo, ICR mice", "conditions": "Mus musculus, ip", "procedure": "Male ICR mice (purchased from Orient Bio Inc. Korea) of body weight 19-26 g were used for these studies. The test materials were administered intraperitoneal route in a volume of 10 ul/g weight. Pharmacological effects of all the test materials were evaluated to compared test groups (n=6) with a control group (n=6). Control group was administrated vehicle, only. The peak time was determined by administration test material's random dose for 0.5 and 1 hour. The time that the most protect was defined peak time and ED50 was determined by other dose administration at peak time. BIC was dissolved in 0.9% saline and administered subcutaneously (s.c.) at its CD97 (convulsive dose 97%) the dose of BIC that produced clonic seizures in 97% into a loose fold of skin in the midline of the neck in a volume of 10 ul/g body weight. The animals were then transferred to observation cages and observed continuously for 30 min. Clonic seizure was elicited in approximately 95% of control group. Protection was defined as complete absence of a clonic seizure over the 30-min observation period. The time that the most protect was defined peak time and ED50 was determined by other dose administration at peak time. The effective dose of compound necessary to protect against seizures to 50% of controls (i.e., ED50) was determined by log probit analysis using Excel 2007 (Microsoft)."}}, "data": [{"smiles": "NC(=O)O[C@@H]1c2c(Cl)cccc2CC[C@@H]1O", "note": "[Example 19, (1R, 2S)-8-chloro-2-hydroxy-1,2,3,4-tetrahydronaphthalen-1-yl carbamate]", "values": [{"measurement": "ED50", "setting": "[1]", "value": 50, "unit": "mg/kg"}, {"measurement": "Tail-flick test Dose", "setting": "[2]", "value": ">200", "unit": "mg/kg"}]}, {"smiles": "NC(=O)O[C@@H]1CCc2cccc(Cl)c2[C@@H]1O", "note": "[Example 1, (1S, 2R)-8-chloro-1-hydroxy-1,2,3,4-tetrahydronaphthalen-2-yl carbamate]", "values": [{"measurement": "ED50", "setting": "[1]", "value": 36.3, "unit": "mg/kg"}, {"measurement": "ED50", "setting": "[3]", "value": 7.5, "unit": "mg/kg"}, {"measurement": "ED50", "setting": "[4]", "value": 28.9, "unit": "mg/kg"}, {"measurement": "Tail-flick test Dose", "setting": "[2]", "value": ">150", "unit": "mg/kg"}]}]}
